Experimental data taken from paper PMC10967427, “Polylactic Glycolic Acid-Mediated Delivery of Plectasin Derivative NZ2114 in Staphylococcus epidermidis Biofilms” (Antibiotics, 2024).

System: S. epidermidis G4 biofilm persister
Assay: Effect on biofilm persisters, colony counting
Type: cell-based, Staphylococcus epidermidis
Conditions: vancomycin 100× MIC, 24 h, induction of persisters
Method: The antibacterial effect of NZ2114 nanoparticles on the persistent bacteria in the biofilm was determined according to the previous study.

CN[C@H](CC(C)C)C(=O)N[C@H]1C(=O)N[C@@H](CC(N)=O)C(=O)N[C@H]2C(=O)N[C@H]3C(=O)N[C@H](C(=O)N[C@H](C(=O)O)c4cc(O)cc(O)c4-c4cc3ccc4O)[C@H](O)c3ccc(c(Cl)c3)Oc3cc2cc(c3O[C@@H]2O[C@H](CO)[C@@H](O)[C@H](O)[C@H]2O[C@H]2C[C@](C)(N)[C@H](O)[C@H](C)O2)Oc2ccc(cc2Cl)[C@H]1O [vancomycin]
Number of viable bacteria in the biofilm after vancomycin: 5.3 × 10^6 CFU/mL
